Measurements: publication PMC12775434, “Ultra-large virtual screening unveils potent agonists of the neuromodulatory orphan receptor GPR139” (Nature Communications, 2025)
pEC50: −log10 of the molar value. Values joined by “and” are separate entries in the source; they are usually repeats but may differ in a detail not shown here. Equal entries are not always repeated.

Key:
GPR139 [1] = molecular target: T1, GPR139 (Homo sapiens, UniProt Q6DWJ6); assay: Ca2+ mobilization assay, antagonist mode (EC80 800 nM Lundbeck Cmp 1a after 20 min preincubation), GPR139-CHOk1; format: cell-based
T1 sequence (Q6DWJ6 1-353): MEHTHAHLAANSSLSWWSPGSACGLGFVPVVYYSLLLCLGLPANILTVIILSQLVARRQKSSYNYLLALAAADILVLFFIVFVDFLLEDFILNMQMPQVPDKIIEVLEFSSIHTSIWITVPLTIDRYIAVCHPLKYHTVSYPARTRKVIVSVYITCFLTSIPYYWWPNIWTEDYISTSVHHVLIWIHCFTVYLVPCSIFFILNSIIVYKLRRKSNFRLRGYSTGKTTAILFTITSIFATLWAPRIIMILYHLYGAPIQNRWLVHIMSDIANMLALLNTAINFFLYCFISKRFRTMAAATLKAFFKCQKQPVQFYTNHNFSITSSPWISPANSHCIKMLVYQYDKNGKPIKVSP
Description: (§1) 30,000 GPR139- or M1R-CHOk1 cells/well were seeded in black clear bottom tissue culture treated 96-well plates (Greiner #655090) and grown for 20–24 h. Cells were washed with HEPES buffer (Hank’s Balanced Salt Solution (HBBS) supplemented with 20 mM HEPES, 1 mM MgCl2, and 1 mM CaCl2; pH 7.4). Cells were loaded with 50 µL of 2 µM Fluo-4 AM dye (ThermoFisher #F14202) in HEPES buffer supplemented with 2.5 mM probenecid and 0.01% Pluronic F-68 (ThermoFisher #24040032) for 1 h at 37 °C. Cells were washed with HEPES buffer. 50 µL HEPES buffer supplemented with 2.5 mM probenecid was added, and the cells were incubated for 10 min at 37 °C before measurement. 50 µL test compounds diluted in HEPES buffer from DMSO stocks (final DMSO concentration of maximally 0.3%) were added automatically after baseline measurements. The intracellular calcium mobilization was measured on a FlexStation 3 Multimode Microplate Reader (Molecular Devices) at 37 °C with filters for excitation of 485 nm and emission of 525 nm.
Our primary compound screening protocol consisted of two subsequent steps that allowed to screen for agonists and antagonists simultaneously. In the first step, the screening compounds were applied at 10 µM to test for agonist activity (agonist mode). Following 20 min incubation with the compounds added in the first step, in the second step, an EC80 concentration (800 nM) of the reference agonist Lundbeck Cmp 1a was applied to test for antagonist activity (antagonist mode). In the agonist mode (first step) response is seen only with compounds having agonist activity (Cmp 1a), but not with non-receptor-binding compounds (Vehicle) or antagonists (NCRW0105-E06) (Supplementary Fig. 14). […] No antagonist compounds were identified in this study.

GPR139 [2] = molecular target: T1, GPR139; assay: Ca2+ mobilization assay, agonist mode, stable GPR139-CHOk1 cell line; format: cell-based
Description: Primary screening and pharmacological characterization of compounds were performed using a CHO-K1 cell line that stably expresses human GPR139 (GPR139-CHOk1). The GPR139-CHOk1 cell line was kindly provided by H. Lundbeck A/S, Denmark[24]. GPR139-CHOk1 cells were grown in Ham’s F-12 Kaighn’s Modification Medium (ThermoFisher #21127030) supplemented with 10% dialyzed fetal bovine serum (US origin, ThermoFisher #26400044), 100 units/mL Penicillin-Streptomycin (ThermoFisher #15140122), and 1 mg/mL Geneticin (ThermoFisher #11811031). […] M1R-CHOk1 cells were purchased from The Missouri S&T cDNA Resource Center (#CEM100TN00). M1R-CHOk1 cells were grown in Ham’s F12 Medium (ThermoFisher #21765029) supplemented with 10% fetal bovine serum (Brazilian origin, ThermoFisher #10270106), 100 units/mL Penicillin-Streptomycin, and 0.25 mg/mL Geneticin. HEK293A cells transiently transfected with GPR139 were used for additional pharmacological assessment of signaling pathways activated by GPR139. HEK239A cells were generously provided by Dr. Asuka Inoue, Tohoku University, Japan. HEK293A cells were grown in Dulbecco’s Modified Eagle Medium (ThermoFisher #31966047) supplemented with 10% dialyzed fetal bovine serum and 100 units/mL Penicillin-Streptomycin. Cell lines were maintained at 37 °C in humidified incubator equilibrated with 5% CO2.
as §1
Our primary compound screening protocol consisted of two subsequent steps that allowed to screen for agonists and antagonists simultaneously. In the first step, the screening compounds were applied at 10 µM to test for agonist activity (agonist mode). Following 20 min incubation with the compounds added in the first step, in the second step, an EC80 concentration (800 nM) of the reference agonist Lundbeck Cmp 1a was applied to test for antagonist activity (antagonist mode).
Pharmacological data and statistical analyses were performed in GraphPad Prism v9–10 (Graphpad Software Inc., San Diego, CA), which are also specifically described in the figure and table legends. The functional assay responses were normalized to buffer (0%) and Lundbeck Cmp 1a or JNJ-63533054 (100%), for Ca^2+ and IP1 experiments in the GPR139-CHOk1 stable cell line or Ca^2+, G protein activation, and arrestin-3 recruitment experiments in the HEK293A cells transiently transfected with GPR139, respectively. Data are from at least three independent experiments, unless stated otherwise. Concentration-response curves were fitted applying non-linear regression using the log (agonist) versus response model with variable slope. ANOVA was applied for comparing results and determining statistical significance.

[3] = individual replicates (Supplementary Figure 1)
[4] = Agonist mode, individual replicates (Supplementary Figure 1)
[5] = primary screen, 10 µM compound, agonist mode, three columns = independent experiments

Row | SMILES | Ca2+ signal (% of Cmp 1a) (GPR139 [1]; [3]) | Ca2+ signal (% of Cmp 1a) (GPR139 [2]; [4]) | further results
1 | C[C@@H](NC(=O)CSc1nnc(C(F)(F)F)s1)c1ccccc1 [Compound 54, C[C@@H](NC(=O)CSC1=NN=C(S1)C(F)(F)F)C=2C=CC=CC2] | 75.2455 % of Cmp 1a and 70.4918 % of Cmp 1a and 82.6113 % of Cmp 1a | 0.563 % of Cmp 1a and 1.54 % of Cmp 1a and 23 % of Cmp 1a | 
2 | CC1(C)COc2cc(NC(=O)NCc3cccnn3)ccc21 [Compound 52, CC1(C)COC=2C=C(NC(=O)NCC=3C=CC=NN3)C=CC21] | 71.4617 % of Cmp 1a and 78.215 % of Cmp 1a and 78.5023 % of Cmp 1a | 1.65 % of Cmp 1a and 1.26 % of Cmp 1a and 1.78 % of Cmp 1a | Ca2+ signal (% of Cmp 1a) (GPR139 [2]; [5]): 1.65 % of Cmp 1a and 1.26 % of Cmp 1a and 1.78 % of Cmp 1a
3 | CCn1c(Nc2ccn(C)n2)nnc1-c1n[nH]c(=O)c2ccccc12 [Compound 45, CCN1C(NC=2C=CN(C)N2)=NN=C1C3=NNC(=O)C=4C=CC=CC34] | 78.1245 % of Cmp 1a and 83.0928 % of Cmp 1a and 73.9872 % of Cmp 1a | 0.117 % of Cmp 1a and 7 % of Cmp 1a and 8 % of Cmp 1a | 
4 | Cc1ccc(C(=O)Nc2cccc(-c3nnc[nH]3)c2)c2c1CCC2 [Compound 61, CC=1C=CC(C(=O)NC=2C=CC=C(C2)C3=NN=CN3)=C4CCCC41] | 50.3835 % of Cmp 1a and 83.4509 % of Cmp 1a and 72.5179 % of Cmp 1a | -6 % of Cmp 1a and -0.901 % of Cmp 1a and -0.172 % of Cmp 1a | 
5 | Cn1c(SCC(=O)Nc2c(F)cccc2F)nc2ccccc21 [Compound 30, CN1C(SCC(=O)NC=2C(F)=CC=CC2F)=NC=3C=CC=CC13] | 67.1888 % of Cmp 1a and 62.1843 % of Cmp 1a and 60.1781 % of Cmp 1a | -6.62 % of Cmp 1a and 1.6 % of Cmp 1a and 14 % of Cmp 1a | 
6 | CN(Cc1nnc[nH]1)c1nc(-c2cc(Cl)cc(Cl)c2)no1 [Compound 25, CN(CC1=NN=CN1)C2=NC(=NO2)C=3C=C(Cl)C=C(Cl)C3] | 70.9298 % of Cmp 1a and 72.5727 % of Cmp 1a and 87.7637 % of Cmp 1a | 4.25 % of Cmp 1a and 1 % of Cmp 1a and 14 % of Cmp 1a | 
7 | CC(O)CN(Cc1ccccc1)C(=O)NCc1ccc(Cl)o1 (stereo not shown) [Compound 19, CC(O)CN(CC=1C=CC=CC1)C(=O)NCC2=CC=C(Cl)O2] | 78.3598 % of Cmp 1a and 79.4126 % of Cmp 1a and 77.319 % of Cmp 1a | 4 % of Cmp 1a and 5 % of Cmp 1a and 6.65 % of Cmp 1a | Ca2+ signal (% of Cmp 1a) (GPR139 [2]; [5]): 4 % of Cmp 1a and 5 % of Cmp 1a and 6.65 % of Cmp 1a
8 | Cc1ccc(OCC(=O)Nc2ccc3c(c2)nc(C)n3C)cc1 [Compound 21, CC1=NC=2C=C(NC(=O)COC=3C=CC(C)=CC3)C=CC2N1C] | 67.0268 % of Cmp 1a and 92.847 % of Cmp 1a and 77.1923 % of Cmp 1a | 1.09 % of Cmp 1a and -7 % of Cmp 1a and -8 % of Cmp 1a | 
9 | O=C(Nc1ccnc(OCc2ccccc2)c1)C1Cc2ccccc21 (stereo not shown) [Compound 43, O=C(NC=1C=CN=C(OCC=2C=CC=CC2)C1)C3CC=4C=CC=CC34] | 90.3553 % of Cmp 1a and 81.3074 % of Cmp 1a and 78.6074 % of Cmp 1a | 0.84 % of Cmp 1a and 9 % of Cmp 1a and 13 % of Cmp 1a | 
10 | O=C(CCn1nnn(-c2ccccc2)c1=O)Nc1ccc(F)cc1 [Compound 57, FC=1C=CC(NC(=O)CCN2N=NN(C=3C=CC=CC3)C2=O)=CC1] | 80.3514 % of Cmp 1a and 84.9179 % of Cmp 1a and 81.9632 % of Cmp 1a | 6 % of Cmp 1a and 0.524 % of Cmp 1a and 4 % of Cmp 1a | 
11 | C[C@H](NC(=O)C1(OCc2ccccc2)CCOCC1)c1ccccc1 [Compound 26, C[C@H](NC(=O)C1(CCOCC1)OCC=2C=CC=CC2)C=3C=CC=CC3] | 89.3069 % of Cmp 1a and 86.2472 % of Cmp 1a and 83.3433 % of Cmp 1a | 2.84 % of Cmp 1a and -5 % of Cmp 1a and 4.48 % of Cmp 1a | 
12 | C[C@@H](NC(=O)Cn1c2c(sc1=O)CCCCC2)c1ccccc1 [Compound 55, C[C@@H](NC(=O)CN1C=2CCCCCC2SC1=O)C=3C=CC=CC3] | 74.6627 % of Cmp 1a and 75.4146 % of Cmp 1a and 90.0274 % of Cmp 1a | 18 % of Cmp 1a and -2.59 % of Cmp 1a and 22 % of Cmp 1a | 
13 | Cc1cccc(-c2nc(C(=O)N3CCc4ncccc43)c(C)[nH]2)c1 [Compound 27, CC=1NC(=NC1C(=O)N2CCC=3N=CC=CC23)C=4C=CC=C(C)C4] | 81.7236 % of Cmp 1a and 71.1235 % of Cmp 1a and 80.4014 % of Cmp 1a | -4.28 % of Cmp 1a and 11 % of Cmp 1a and 2.44 % of Cmp 1a | 
14 | Cc1ccc(-n2cc(NC(=O)NCc3cccs3)cn2)c(C)c1 [Compound 37, CC=1C=CC(=C(C)C1)N2C=C(NC(=O)NCC3=CC=CS3)C=N2] | 89.9792 % of Cmp 1a and 76.2749 % of Cmp 1a and 86.0947 % of Cmp 1a | -6 % of Cmp 1a and 12 % of Cmp 1a and 7 % of Cmp 1a | 
15 | CC(Sc1nnc(C(C)(C)C)[nH]1)C(=O)NC(C)c1ccccc1 (stereo not shown) [Compound 51, CC(NC(=O)C(C)SC1=NN=C(N1)C(C)(C)C)C=2C=CC=CC2] | 68.4513 % of Cmp 1a and 72.762 % of Cmp 1a and 87.4722 % of Cmp 1a | -5 % of Cmp 1a and -3 % of Cmp 1a and 10 % of Cmp 1a | 
16 | Cc1nn(C)c2nc(C(=O)N[C@@H](C)c3ccccc3)ccc12 [Compound 15, C[C@H](NC(=O)C=1C=CC=2C(C)=NN(C)C2N1)C=3C=CC=CC3] | 88.3523 % of Cmp 1a and 83.7132 % of Cmp 1a and 99.0735 % of Cmp 1a | -11 % of Cmp 1a and 0.224 % of Cmp 1a and 7.56 % of Cmp 1a | 
17 | O=C(NCc1cccnc1)c1cn(-c2cccc(Cl)c2)nn1 [Compound 35, ClC=1C=CC=C(C1)N2C=C(N=N2)C(=O)NCC=3C=CC=NC3] | 84.5048 % of Cmp 1a and 71.7301 % of Cmp 1a and 84.4533 % of Cmp 1a | 5.3 % of Cmp 1a and 12 % of Cmp 1a and 7.49 % of Cmp 1a | 
18 | CC(NC(=O)Cc1coc(-c2cccs2)n1)c1ccccc1 (stereo not shown) [Compound 1.44, CC(NC(=O)CC1=COC(=N1)C2=CC=CS2)C=3C=CC=CC3] |  |  | Ca2+ signal (% of Cmp 1a) (GPR139 [1]; individual replicates (Supplementary Figure 4)): -8 % of Cmp 1a and 68 % of Cmp 1a and 69 % of Cmp 1a; calcium mobilization response relative to Lundbeck Cmp 1a (GPR139 [2]; 10 µM compound, agonist mode): 43%; Ca2+ signal (% of Cmp 1a) (GPR139 [2]; Agonist mode, individual replicates (Supplementary Figure 4)): 88 % of Cmp 1a and 15 % of Cmp 1a and 25 % of Cmp 1a; fold decrease in potency on substitution of the central oxadiazole ring (GPR139 [2]; Ca2+ mobilization): > 50 fold; pEC50 (GPR139 [2]; GPR139-CHOk1, read-out: EC50, Ca2+ mobilization): < 5.00
19 | O=C(CCn1nnc2ccccc2c1=O)Nc1ccc(F)c(F)c1F [Compound 33, FC=1C=CC(NC(=O)CCN2N=NC=3C=CC=CC3C2=O)=C(F)C1F] | 80.4976 % of Cmp 1a and 74.4333 % of Cmp 1a and 82.6399 % of Cmp 1a | -1.58 % of Cmp 1a and 1 % of Cmp 1a and 18 % of Cmp 1a | 
